Experimental data: PMC6471201, “Discovery of Indoleamine 2,3-Dioxygenase 1 (IDO-1) Inhibitors Based on Ortho-Naphthaquinone-Containing Natural Product” (Molecules, 2019)

Assays:
[1] = test system: IDO-1; parameters: method as in PMID 30108982; details: known inhibitors, Figure 1; cited from earlier work
[2] = biological target: T1, hIDO-1 (Homo sapiens, UniProt P14902); assay: hIDO-1 enzymatic assay; format: biochemical; details: mean ± SE of two independent experiments; for IC50: rhIDO-1, L-tryptophan substrate, 37 °C 30 min; for inhibition at 20 µM: 20 µM compound, read-out: Inhibitory Rate at 20 µM (enzymatic)
[3] = biological target: T1, hIDO-1; assay: Cell-based assay of IDO-1 activity in HEK 293 cells transfected with pcDNA3.1-hIDO-1; parameters: expressed in transfected cells; host or cells: HEK 293; details: HEK 293-hIDO-1 cells, 12-h incubation; mean ± SE of two independent experiments; read-out: Cellular IC50

T1 sequence (P14902 whole entry): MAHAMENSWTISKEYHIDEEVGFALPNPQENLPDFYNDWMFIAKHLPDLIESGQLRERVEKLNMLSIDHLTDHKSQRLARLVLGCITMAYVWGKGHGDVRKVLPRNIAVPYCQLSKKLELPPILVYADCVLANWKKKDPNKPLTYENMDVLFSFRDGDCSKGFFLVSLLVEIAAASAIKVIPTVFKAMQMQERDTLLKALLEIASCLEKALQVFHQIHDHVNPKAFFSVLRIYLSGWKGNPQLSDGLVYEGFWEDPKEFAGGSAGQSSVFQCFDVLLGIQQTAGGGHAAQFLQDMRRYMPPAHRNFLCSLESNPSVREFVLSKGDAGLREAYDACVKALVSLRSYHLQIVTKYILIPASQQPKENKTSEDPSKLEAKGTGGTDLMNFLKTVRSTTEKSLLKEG

IC50 [2] [µM]	inhibition at 20 µM [2] [%]	Structure (SMILES)	other results
		Cc1cccc2c3c(ccc12)C1=C(C(=O)C3=O)C(C)CO1 (centres unmarked) [Compound 4]	IC50 [1]: 1.3 µM
7.47 ± 3.58		CCOC(=O)/C=C/C(=O)OC1CCC(C)(C)c2ccc3c(c21)C(=O)C(=O)c1c(C)coc1-3 (centres unmarked) [Compound 7e]	
	21.5 ± 1.1	CCC(=O)OC1CCC(C)(C)c2ccc3c(c21)C(=O)C(=O)c1c-3oc(-c2ccccc2)c1C (centres unmarked) [Compound 7d]	
3.1 ± 1.02		Cc1coc2c1C(=O)C(=O)c1c-2ccc2c1C=CC(O)C2(C)C (centres unmarked) [Compound 10, 7-hydroxy-1,6,6-trimethyl-6,7-dihydrophenanthro[1,2-b]furan-10,11-dione]	IC50 [3]: > 10 µM; melting point: 185.2 to 188.5 °C
> 20	23.1 ± 1.6	Cc1coc2c1C(=O)C(=O)c1c-2ccc2c1CCCC2(C)C [Compound 6, Tan-IIA, reference compound]	
	48 ± 3.2	Cc1coc2c1C(=O)C(=O)c1c-2ccc2c1C(OC(=O)C1CCCCC1)CCC2(C)C (centres unmarked) [Compound 7h]	
	54.5 ± 2.3	Cc1coc2c1C(=O)C(=O)c1c-2ccc2c1C(OC(=O)c1ccccc1)CCC2(C)C (centres unmarked) [Compound 7i]	
7.05 ± 2.46		Cc1coc2c1C(=O)C(=O)c1c-2ccc2c1C(OC(=O)C1CC1)CCC2(C)C (centres unmarked) [Compound 7g]	
4.72 ± 0.3		CCC(=O)OC1CCC(C)(C)c2ccc3c(c21)C(=O)C(=O)c1c(C)coc1-3 (centres unmarked) [Compound 7b]	
	29.3 ± 2.2	CCC(=O)OC1CCC(C)(C)c2ccc3c(c21)C(=O)C(=O)c1c-3oc(-c2ccsc2)c1C (centres unmarked) [Compound 7c]	
2.83 ± 0.12		Cc1coc2c1C(=O)C(=O)c1c-2ccc2c1C(O)CCC2(C)C (centres unmarked) [Compound 8]	
0.84 ± 0.26		Cc1coc2c1C(=O)C(=O)c1c-2ccc2c1C=CC(=O)C2(C)C [Compound 11, 1,6,6-trimethylphenanthro[1,2-b]furan-7,10,11(6H)-trione]	IC50 [3]: > 10 µM; melting point: 261.2 to 262.8 °C
~20	68 ± 8.6	CC1(C)C=CC(=O)c2c1ccc1c2C(=O)C(=O)c2c(CO)coc2-1 [Compound 15, 1-(hydroxymethyl)-6,6-dimethylphenanthro[1,2-b]furan-9,10,11(6H)-trione]	
~20	52.7 ± 2.5	Cc1coc2c1C(=O)C(=O)c1c-2ccc2c1C(=O)C=CC2(C)C [Compound 14, 1,6,6-trimethylphenanthro[1,2-b]furan-9,10,11(6H)-trione]	IC50 [3]: > 10 µM; melting point: 158.3 to 160.8 °C
		Cc1c(-c2c(C)c(O)c3ccccc3c2O)oc2c1C(=O)C(=O)c1c-2ccc2c1CCCC2(C)C [Compound 5]	IC50 [1]: 4.1 µM
2.74 ± 0.1		Cc1coc2c1C(=O)C(=O)c1c-2ccc2c1C(OC(=O)CO)CCC2(C)C (centres unmarked) [Compound 7f]	
5.71 ± 0.47		Cc1coc2c1C(=O)C(=O)c1c-2ccc2c1C(OC(=O)c1nccs1)CCC2(C)C (centres unmarked) [Compound 7l]	
	61.2 ± 2.1	Cc1coc2c1C(=O)C(=O)c1c-2ccc2c1C=CCC2(C)C [Compound 9, 1,6,6-trimethyl-6,7-dihydrophenanthro[1,2-b]furan-10,11-dione]	IC50 [1]: 4.68 µM; IC50 [3]: > 10 µM
4.6 ± 2.81		Cc1coc2c1C(=O)C(=O)c1c-2ccc2c1C(OC(=O)c1ccoc1)CCC2(C)C (centres unmarked) [Compound 7k]	
0.37 ± 0.02		CC1(C)C(=O)C=Cc2c1ccc1c2C(=O)C(=O)c2c(CO)coc2-1 [Compound 12, 1-(hydroxymethyl)-6,6-dimethylphenanthro[1,2-b]furan-7,10,11(6H)-trione]	IC50 [3]: 3.85 ± 0.86 µM
4.96 ± 2.02		Cc1coc2c1C(=O)C(=O)c1c-2ccc2c1C(OC(=O)c1cnccn1)CCC2(C)C (centres unmarked) [Compound 7m]	
	60.4 ± 3.9	Cc1coc2c1C(=O)C(=O)c1c-2ccc2c1C(OC(=O)c1cccs1)CCC2(C)C (centres unmarked) [Compound 7j]	

Structure (SMILES)	IC50 [2] [µM]	inhibition at 20 µM [2] [%]	other results
CC(=O)OC1CCC(C)(C)c2ccc3c(c21)C(=O)C(=O)c1c(C)coc1-3 (centres unmarked) [Compound 7a]	3.72 ± 0.45		
